Two compounds from patent US20230218618A1, “ADMINISTRATION OF SUMO-ACTIVATING ENZYME INHIBITOR AND ANTI-CD38 ANTIBODIES” (MILLENNIUM PHARMACEUTICALS, INC., priority 2020, published 2023) can be followed below.

In experiment [1] the test system is MOLP-8 human multiple myeloma cell line. The experiment in a line: Study 4: MOLP-8 xenograft human multiple myeloma subcutaneous tumor model. It is filed as in vivo, SCID mice. The following applies: for GRI%: vs vehicle; for Tumor growth compared to vehicle (pairwise comparison): I-263a 7.5 mg/kg BIW 2 weeks (p < 0.05 as printed), daratumumab 2.5, 7.5 or 20 mg/kg (p < 0.01; p < 0.01; p < 0.001), I-263a with daratumumab 2.5, 7.5 or 20 mg/kg (p < 0.001). The method, then:
(§1) Low tumor volumes can cause problems with the data analysis, so all measurements below 25 cubic mm (including 0 values) were excluded from the analysis. After this exclusion step, the tumor volume was assumed to follow an exponential growth model. More specifically, for a given animal and treatment group,
(§2) Pairwise comparisons were performed, where the mean growth rates were compared for various pairs of treatment conditions. The results were summarized using the growth rate inhibition (GRI). Suppose µT and µC are the mean tumor growth rates for the treatment and reference groups, respectively. Define
(§3) Here, µAB, µA, µB, and µControl are the mean growth rates for the combination, drug A, drug B, and control groups, respectively. As before, µv is the mean tumor growth rate for the vehicle group, which in most cases is the same as the control group. The standard error of the synergy score was calculated as the square root of the sum of squared standard errors across the four groups. The degrees of freedom were estimated using the Welch-Satterthwaite equation. A hypothesis test was performed to determine if the synergy score differed from 0. P-values were calculated by dividing the synergy score by its standard error and tested against a t-distribution (two-tailed) with the above-calculated degrees of freedom. A P value of less than 0.05 is statistically significant.
(§4) The combination results can be interpreted as follows. Statistically significant negative synergy scores indicate a synergistic combination (“Syn.”). Statistically significant positive synergy scores indicate a sub-additive combination (“Sub-add.”) when the combination performs better (i.e. has a lower growth rate) than the best performing single agent. Statistically significant positive synergy scores indicate an antagonistic combination (“Antag.”) when the combination performs worse than the best performing single agent. Scores that are not statistically significant should be considered additive (“Add.”).
MOLP-8 is a human multiple myeloma cell line. A MOLP-8 human xenograft tumor model was generated by subcutaneous inoculation with 4.0 × 10^6 MOLP-8 cells (cell suspension) in 14 weeks old female SCID mice (Vital River Laboratory Animal Technology Co., Ltd, Beijing, China) in the flank. When the mean tumor volume reached approximately 170 mm^3, the animals were randomized into one vehicle control and seven treatment groups (n=8/group). Mice were then dosed with 20% HPβCD or Compound I-263a or daratumumab over a 14-day period. Tumor growth and body weight were measured twice per week during the treatment and post-treatment periods, and mice were humanely euthanized once they had reached their humane endpoint.
A 0.75 mg/mL stock solution of I-263a was formulated weekly in 20% HPβCD and administered IV based on exact animal body weight on each day of treatment, using a dosing volume of 10 mL/kg body weight. Final dose I-263a received was 7.5 mg/kg. I-263a was administered on a BIW schedule for 2 weeks (Days 1, 4, 8, and 11). Daratumumab (anti-CD38 antibody) (Janssen Biotech, Inc., Horsham, PA) was stored at 4° C. according to manufacturer’s instructions. Final dose daratumumab received was 2.5 mg/kg, 7.5 mg/kg, and 20 mg/kg based on exact animal body weight on each day of treatment, using a dosing volume of 10 mL/kg body weight. Daratumumab was administered intraperitoneally (IP) using a 0.1 mL dosing volume, on a BIW schedule for 2 weeks (Days 1, 4, 8, and 11).
Tumors were measured twice weekly using Vernier calipers. Tumor volumes were calculated using standard equation: V = W^2 × L/2, where V = volume, W = width, and L = length for the tumor. When mean tumor volumes reached approximately 170 mm^3, mice were randomized into control and treatment groups. Mice were randomized into 8 groups (n=8/group) and dosed with vehicle (20% HPβCD), I-263a, daratumumab, or the combination of I-263a plus daratumumab at doses and schedules as described above. […]
(Xenograft models place foreign cells or tissue in a host animal.)

Experiment [2] relates to Daudi human Burkitt’s Lymphoma cell line. The experiment in a line: Study 1: Daudi xenograft human Burkitt's lymphoma subcutaneous tumor model. It is filed as in vivo, CB17 SCID mice. The following applies: for GRI%: vs vehicle; for Tumor growth relative to vehicle-treated tumors (pairwise comparison): I-263a 7.5 mg/kg BIW, daratumumab 7.5 mg/kg BIW or both, data up to Day 22, p < 0.001. As for the experimental part:
as §1, §2, §3, §4
Daudi is a human Burkitt’s Lymphoma cell line. A Daudi human xenograft tumor model was generated by subcutaneous inoculation with 2.0 […] 10^6 Daudi cells (cell suspension) in 6 weeks old female CB17 SCID mice (Charles River Laboratories, 251 Ballardvale St., Wilmington, MA) in the flank. When the mean tumor volume reached approximately 120 mm^3, the animals were randomized into one vehicle control and three treatment groups (n=8/group). Mice were then dosed with 20% HPβCD or Compound I-263a and/or daratumumab over a 21-day period. Tumor growth and body weight were measured twice per week during the treatment and post-treatment periods, and mice were humanely euthanized once they had reached their humane endpoint.
A 1.725 mg/mL and a 0.862 mg/mL stock solution of I-263a was formulated weekly in 20% HPβCD and administered intravenously (IV) based on an average body weight using a 0.2 mL dosing volume. Final doses I-263a received were 7.5 mg/kg. I-263a was administered on a BIW schedule for 3 weeks (Days 1, 4, 8, 11, 15, and 18). Daratumumab (anti-CD38 antibody) (Myoderm Medical Supplies, 48 E Main St., Norristown, PA 19401) was purchased at the beginning of the study and stored at 4° C. according to manufacturer’s instructions. Final dose daratumumab received was 7.5 mg/kg based on average body weight. Daratumumab was administered intraperitoneally (IP) using a 0.1 mL dosing volume, on a BIW schedule for 3 weeks (Days, 1, 4, 8, 11, 15, and 18).
Tumors were measured twice weekly using Vernier calipers. Tumor volumes were calculated using standard equation: V = W^2 x L/2, where V = volume, W = width, and L = length for the tumor. When mean tumor volumes reached approximately 120 mm^3, mice were randomized into control and treatment groups. Mice were randomized into 4 groups (n=8/group) and dosed with vehicle (20% HPβCD), I-263a, daratumumab, or the combination of I-263a plus daratumumab at doses and schedules described above. […]

For experiment [3], the system named is SUMO-activating enzyme and SUMOylation. The experiment in a line: Inhibition of SUMO-activating enzyme and SUMOylation in cultured tumor cell lines. The class given is cell-based. The following applies: cultured mouse and human tumor cell lines.
Another experiment has as its target SUMO-activating enzyme (Homo sapiens, UniProt Q9UBT2). Put plainly: Biochemical assays of SUMO-activating enzyme inhibition.

SUMO-activating enzyme, sequence (Q9UBT2 whole entry): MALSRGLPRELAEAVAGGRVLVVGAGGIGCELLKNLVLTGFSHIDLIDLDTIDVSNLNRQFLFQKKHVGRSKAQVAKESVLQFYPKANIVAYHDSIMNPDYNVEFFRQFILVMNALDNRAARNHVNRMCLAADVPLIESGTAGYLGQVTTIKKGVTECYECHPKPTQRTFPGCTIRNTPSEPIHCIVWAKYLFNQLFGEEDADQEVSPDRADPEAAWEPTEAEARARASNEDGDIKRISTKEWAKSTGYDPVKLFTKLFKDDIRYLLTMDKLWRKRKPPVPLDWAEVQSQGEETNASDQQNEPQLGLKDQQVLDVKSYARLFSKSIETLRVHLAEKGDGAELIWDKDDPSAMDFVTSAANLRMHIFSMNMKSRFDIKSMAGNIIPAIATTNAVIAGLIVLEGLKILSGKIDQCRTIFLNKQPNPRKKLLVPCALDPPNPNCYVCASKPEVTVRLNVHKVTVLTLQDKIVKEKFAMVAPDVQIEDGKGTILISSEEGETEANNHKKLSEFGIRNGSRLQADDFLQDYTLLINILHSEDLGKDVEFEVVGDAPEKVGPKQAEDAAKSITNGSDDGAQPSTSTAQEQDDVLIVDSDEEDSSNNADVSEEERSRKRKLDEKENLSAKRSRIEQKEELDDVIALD
SUMO-activating enzyme, sequence (Q9UBE0 whole entry partner): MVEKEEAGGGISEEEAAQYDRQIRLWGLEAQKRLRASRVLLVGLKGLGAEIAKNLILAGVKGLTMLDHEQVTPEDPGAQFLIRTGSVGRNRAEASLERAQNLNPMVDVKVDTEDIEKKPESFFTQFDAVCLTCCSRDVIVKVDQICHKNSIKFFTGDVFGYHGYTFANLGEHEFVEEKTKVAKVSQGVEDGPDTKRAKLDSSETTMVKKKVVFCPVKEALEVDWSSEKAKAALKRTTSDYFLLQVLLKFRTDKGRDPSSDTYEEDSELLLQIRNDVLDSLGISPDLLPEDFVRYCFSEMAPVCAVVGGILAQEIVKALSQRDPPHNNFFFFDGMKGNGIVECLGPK
SUMO-activating enzyme, sequence (P63165 1-97 partner limits assumed): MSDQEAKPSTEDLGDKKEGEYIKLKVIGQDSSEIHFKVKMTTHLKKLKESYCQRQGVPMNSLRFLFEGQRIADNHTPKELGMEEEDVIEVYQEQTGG

As to “Daratumumab: immunoglobulin G1 kappa (IgG1κ) human monoclonal antibody against CD38 antigen”, the entries for the “Tumor volume on Day 14 (± SEM)” value in experiment [1] (Daratumumab 2.5 mg/kg BIW IP), in experiment [1] (Daratumumab 7.5 mg/kg BIW IP) and in experiment [1] (Daratumumab 20 mg/kg BIW IP) were 2047.4 ± 83.4, 1653 ± 158.5 and 1250.6 ± 108.6, respectively. Further, the GRI% in experiment [1] (Daratumumab 2.5 mg/kg BIW IP) is 11%; in experiment [1] (Daratumumab 7.5 mg/kg BIW IP), 20%; in experiment [1] (Daratumumab 20 mg/kg BIW IP) it was 28%; in experiment [2] (Daratumumab 7.5 mg/kg BIW IP) it was 29%. The “Tumor growth compared to vehicle (pairwise comparison)” value in experiment [1] was “significantly inhibited growth curves”. In experiment [2] (Daratumumab 7.5 mg/kg BIW IP), the “Tumor Volume on Day 22 (±SEM)” value worked out at 1043.9 ± 159.1. The “Tumor growth relative to vehicle-treated tumors (pairwise comparison)” value in experiment [2] is reported as “tumor growth inhibition”.

On to `Cc1sc(C(=O)c2cncnc2N[C@@H]2C[C@H](COS(N)(=O)=O)[C@@H](O)C2)cc1[C@@H]1NCCc2ccc(Cl)cc21` [Compound I-263a, [(1R,2S,4R)-4-{[5-({4-[(1R)-7-chloro-1,2,3,4-tetrahydroisoquinolin-1-yl]-5-methyl-2-thienyl}carbonyl)pyrimidin-4-yl]amino}-2-hydroxycyclopentyl]methyl sulfamate], for which, in experiment [3], the “Inhibition of SUMO-activating enzyme and SUMOylation in cells” value is “Selective and potent inhibition”. Further, the “Tumor growth compared to vehicle (pairwise comparison)” value in experiment [1] is on record as “not significantly different”. For the same compound, in experiment [1] (I-263a 7.5 mg/kg BIW IV), the “Tumor volume on Day 14 (± SEM)” value stood at 2500.8 ± 106.6 and the GRI% was determined as 3%. Besides, in experiment [2] (I-263a 7.5 mg/kg BIW IV), the “Tumor Volume on Day 22 (±SEM)” value is 1509.4 ± 109.1 and the GRI% was 15%. Further, the “Tumor growth relative to vehicle-treated tumors (pairwise comparison)” value in experiment [2] was “tumor growth inhibition”. The “Inhibition of SUMO-activating enzyme activity” value at SUMO-activating enzyme (mechanism-based inhibitor forming a covalent adduct with SUMO) is on record as “potently inhibits enzyme activity”. The “Selectivity for SUMO-activating enzyme” value on SUMO-activating enzyme (over ubiquitin-activating enzyme, Nedd8-activating enzyme, and autophagy related 7 enzyme) is recorded as “Strong selectivity”.
